{
  "source": "ChEMBL document CHEMBL4295262",
  "about": "“Evaluation of the utility of stem-cell derived cardiomyocytes for drug proarrhythmic potential” (2019)",
  "conditions_in_all_cases": "human, ipsc-cm",
  "key": {"[1]": {"experiment": "(§1) Electrical activity assay on cell lines treated with a given drug. DMSO was used as a vehicle and a control, unblinded dofetilide was used as a control.", "type": "ADME, cell-based"}, "[2]": {"experiment": "as §1", "type": "ADME, cell-based", "remark": "listed apart in the source"}, "[3]": {"experiment": "as §1", "type": "ADME, cell-based", "design": "FPDc: unit not given here"}, "[4]": {"experiment": "as §1"}, "[5]": {"experiment": "as §1", "remark": "listed apart in the source"}, "[6]": {"conditions": "0.1 µM, concentration (um) 0.1 uM"}, "[7]": {"conditions": "10 µM, concentration (um) 10 uM"}, "[8]": {"conditions": "100 µM, concentration (um) 100 uM"}},
  "data": [
    {"smiles": "CC(C)N(CCC(C(N)=O)(c1ccccc1)c1ccccn1)C(C)C", "note": "(stereo not drawn) [DISOPYRAMIDE]", "values": [
      {"measurement": "FPD measurement", "setting": "[1]; [6]", "result": 49.69, "unit": "FPDc"},
      {"measurement": "FPDc", "setting": "[1]; [6]", "result": "6 Values Out Of 6 Were Excluded Due To Quiescence Or 0 Fpdc"},
      {"measurement": "FPD measurement", "setting": "[1]; 1 µM, concentration (um) 1 uM", "result": 52.18, "unit": "FPDc"},
      {"measurement": "FPDc", "setting": "[1]; 1 µM, concentration (um) 1 uM", "result": "6 Values Out Of 6 Were Excluded Due To Quiescence Or 0 Fpdc"},
      {"measurement": "FPD measurement", "setting": "[1]; [7]", "result": 63.31, "unit": "FPDc"},
      {"measurement": "FPDc", "setting": "[1]; [7]", "result": "6 Values Out Of 6 Were Excluded Due To Quiescence Or 0 Fpdc"},
      {"measurement": "FPDc", "setting": "[1]; [8]", "result": "6 Values Out Of 6 Were Excluded Due To Quiescence Or 0 Fpdc"},
      {"measurement": "FPD measurement", "setting": "[2]; [6]", "result": "5 Values Out Of 5 Were Excluded Due To Quiescence Or 0 Apdc"},
      {"measurement": "FPDc", "setting": "[2]; [6]", "result": 23.29},
      {"measurement": "FPD measurement", "setting": "[2]; 1 µM, concentration (um) 1 uM", "result": "5 Values Out Of 5 Were Excluded Due To Quiescence Or 0 Apdc"},
      {"measurement": "FPDc", "setting": "[2]; 1 µM, concentration (um) 1 uM", "result": 24.45},
      {"measurement": "FPD measurement", "setting": "[2]; [7]", "result": "5 Values Out Of 5 Were Excluded Due To Quiescence Or 0 Apdc"},
      {"measurement": "FPDc", "setting": "[2]; [7]", "result": 24.5},
      {"measurement": "FPD measurement", "setting": "[2]; [8]", "result": "More Than Half The Wells Had A Quiescence Event Or Apdc Readings Of 0"},
      {"measurement": "FPDc", "setting": "[2]; [8]", "result": "More Than Half The Wells Had A Quiescence Event Or Fpdc Readings Of 0"},
      {"measurement": "FPD measurement", "setting": "[3]; [6]", "result": "5 Values Out Of 5 Were Excluded Due To Quiescence Or 0 Apdc"},
      {"measurement": "FPDc", "setting": "[3]; [6]", "result": 48.43},
      {"measurement": "FPD measurement", "setting": "[3]; 1 µM, concentration (um) 1 uM", "result": "5 Values Out Of 5 Were Excluded Due To Quiescence Or 0 Apdc"},
      {"measurement": "FPDc", "setting": "[3]; 1 µM, concentration (um) 1 uM", "result": 75.52},
      {"measurement": "FPDc", "setting": "[3]; [7]", "result": 26.6},
      {"measurement": "FPD measurement", "setting": "[3]; [8]", "result": "5 Values Out Of 5 Were Excluded Due To Quiescence Or 0 Apdc"},
      {"measurement": "FPDc", "setting": "[3]; [8]", "result": 18.51},
      {"measurement": "FPD measurement", "setting": "[4]; 0.1 µM", "result": "1 Values Out Of 1 Were Excluded Due To Quiescence Or 0 Fpdc"},
      {"measurement": "FPDc", "setting": "[4]; 0.1 µM", "result": "1 Values Out Of 1 Were Excluded Due To Quiescence Or 0 Fpdc"},
      {"measurement": "FPD measurement", "setting": "[4]; 1 µM", "result": "1 Values Out Of 1 Were Excluded Due To Quiescence Or 0 Fpdc"},
      {"measurement": "FPDc", "setting": "[4]; 1 µM", "result": "1 Values Out Of 1 Were Excluded Due To Quiescence Or 0 Fpdc"},
      {"measurement": "FPD measurement", "setting": "[4]; 10 µM", "result": "1 Values Out Of 1 Were Excluded Due To Quiescence Or 0 Fpdc"},
      {"measurement": "FPDc", "setting": "[4]; 10 µM", "result": "1 Values Out Of 1 Were Excluded Due To Quiescence Or 0 Fpdc"},
      {"measurement": "FPD measurement", "setting": "[4]; 100 µM", "result": "1 Values Out Of 1 Were Excluded Due To Quiescence Or 0 Fpdc"},
      {"measurement": "FPDc", "setting": "[4]; 100 µM", "result": "1 Values Out Of 1 Were Excluded Due To Quiescence Or 0 Fpdc"},
      {"measurement": "APDc", "setting": "[5]; 0.1 µM", "result": 56.58},
      {"measurement": "FPD measurement", "setting": "[5]; 0.1 µM", "result": 56.58, "unit": "FPDc"},
      {"measurement": "APDc", "setting": "[5]; 1 µM", "result": 63.45},
      {"measurement": "FPD measurement", "setting": "[5]; 1 µM", "result": 63.45, "unit": "FPDc"},
      {"measurement": "APDc", "setting": "[5]; 10 µM", "result": 68.66},
      {"measurement": "FPD measurement", "setting": "[5]; 10 µM", "result": 68.66, "unit": "FPDc"},
      {"measurement": "APDc", "setting": "[5]; 100 µM", "result": 66.87},
      {"measurement": "FPD measurement", "setting": "[5]; 100 µM", "result": 66.87, "unit": "FPDc"}
    ]}
  ]
}
